This is an account of results in US10383835B2, “Treatment of inflammatory disorders in non-human mammals” (The Regents of the University of California, priority 2012, dated 2019).

Molecules are shown by their SMILES.

One data set deals with Canine sEH (Canis lupus familiaris, UniProt A0A8I3NJL8). The experiment in a line: sEH Inhibitor Screen of Canine sEH. The format is biochemical. The conditions noted are these: [I] = 100 nM.
Another data set deals with sEH (Homo sapiens (Human), UniProt P34913). As to the kind of experiment: Activity as inhibitor of sEH (standard assays). The format is biochemical. An excerpt: Derivatives of urea are transition state mimetics that form a preferred group of sEH inhibitors. […] Any particular urea derivative or other compound can be easily tested for its ability to inhibit sEH by standard assays, such as those discussed herein. The production and testing of urea and carbamate derivatives as sEH inhibitors is set forth in detail in, for example, Morisseau et al., Proc Natl Acad Sci (USA) 96:8849-8854 (1999).
Sequence of sEH (P34913 whole entry): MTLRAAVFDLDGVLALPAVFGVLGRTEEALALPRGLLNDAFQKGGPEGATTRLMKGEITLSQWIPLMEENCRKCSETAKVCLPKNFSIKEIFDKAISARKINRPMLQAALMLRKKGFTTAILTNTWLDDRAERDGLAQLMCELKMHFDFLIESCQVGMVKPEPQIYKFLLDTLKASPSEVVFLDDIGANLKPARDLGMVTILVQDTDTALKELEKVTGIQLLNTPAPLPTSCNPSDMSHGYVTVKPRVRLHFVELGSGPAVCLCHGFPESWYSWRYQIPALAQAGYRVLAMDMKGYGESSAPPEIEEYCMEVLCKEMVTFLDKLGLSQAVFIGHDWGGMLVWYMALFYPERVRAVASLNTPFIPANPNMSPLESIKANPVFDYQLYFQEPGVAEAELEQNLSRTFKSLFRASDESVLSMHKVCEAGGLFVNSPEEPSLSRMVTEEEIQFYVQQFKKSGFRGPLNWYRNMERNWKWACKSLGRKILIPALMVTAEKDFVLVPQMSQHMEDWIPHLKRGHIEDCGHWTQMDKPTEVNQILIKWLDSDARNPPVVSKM
One category of these inhibitors comprises inhibitors that mimic the substrate for the enzyme. The lipid alkoxides (e.g., the 9-methoxide of stearic acid) are an exemplar of this group of inhibitors.

Data set [1] concerns horse with pain due to laminitis. The experiment in a line: Pain (VAS) and blood pressure in one horse with naturally occurring laminitis, multimodal analgesic therapy. It counts as in vivo. Conditions: before t-TUCB; phenylbutazone 4 mg/kg twice daily PO, gabapentin 20 mg/kg twice daily PO.
For another data set, the target named is COX-2 (Equus caballus (Horse), UniProt O19183). The conditions noted are these: read-out: 80% maximal inhibitory concentration (IC80) against COX-2; cited from earlier work.
Sequence of COX-2 (O19183 18-604): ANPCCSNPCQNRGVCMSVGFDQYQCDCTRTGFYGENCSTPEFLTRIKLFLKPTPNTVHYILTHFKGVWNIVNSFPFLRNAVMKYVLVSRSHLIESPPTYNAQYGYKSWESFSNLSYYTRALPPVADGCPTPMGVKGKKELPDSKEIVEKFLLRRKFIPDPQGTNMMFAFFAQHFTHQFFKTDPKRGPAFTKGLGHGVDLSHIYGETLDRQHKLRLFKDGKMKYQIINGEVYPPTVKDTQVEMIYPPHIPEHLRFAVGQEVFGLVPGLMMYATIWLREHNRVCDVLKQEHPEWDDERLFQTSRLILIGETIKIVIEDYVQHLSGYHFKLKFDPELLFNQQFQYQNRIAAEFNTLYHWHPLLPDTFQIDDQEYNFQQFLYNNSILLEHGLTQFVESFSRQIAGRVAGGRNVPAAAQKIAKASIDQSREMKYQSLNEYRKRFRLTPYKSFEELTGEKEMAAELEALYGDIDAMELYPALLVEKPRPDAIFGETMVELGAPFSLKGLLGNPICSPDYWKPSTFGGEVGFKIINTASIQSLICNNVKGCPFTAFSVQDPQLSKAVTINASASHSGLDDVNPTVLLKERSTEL
For another data set, the system named is COX-2 / COX-1. Conditions: cited from earlier work.
The conditions of data set [2]: human volunteers; cited from earlier work.
A short description of data set [3]: Plasma concentrations and pharmacokinetics in the laminitic horse. Conditions: gabapentin 20 mg/kg BID PO.
Details of data set [4]: species or system horse. The conditions noted are these: in vivo.
A further data set can be described thus: in vivo. Conditions: Thoroughbred, horse, iv, 0.1 mg/kg.

Sequence of Canine sEH (A0A8I3NJL8 1-556): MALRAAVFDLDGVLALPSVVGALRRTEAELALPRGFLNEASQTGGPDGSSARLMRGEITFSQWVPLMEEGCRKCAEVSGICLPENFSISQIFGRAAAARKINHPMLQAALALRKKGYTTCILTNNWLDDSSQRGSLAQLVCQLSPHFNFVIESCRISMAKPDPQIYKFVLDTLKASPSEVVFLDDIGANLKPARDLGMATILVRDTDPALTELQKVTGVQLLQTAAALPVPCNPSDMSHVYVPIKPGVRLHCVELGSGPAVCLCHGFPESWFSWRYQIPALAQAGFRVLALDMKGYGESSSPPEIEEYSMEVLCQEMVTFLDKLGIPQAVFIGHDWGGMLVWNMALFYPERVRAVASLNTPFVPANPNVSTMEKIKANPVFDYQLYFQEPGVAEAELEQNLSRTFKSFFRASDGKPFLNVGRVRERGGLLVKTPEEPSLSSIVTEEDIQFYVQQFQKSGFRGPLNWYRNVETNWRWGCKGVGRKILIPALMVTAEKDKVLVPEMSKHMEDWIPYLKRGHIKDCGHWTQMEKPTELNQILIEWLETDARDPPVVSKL

As for `O=C(O)CNC(=O)c1ccc(O[C@H]2CC[C@H](NC(=O)Nc3ccc(OC(F)(F)F)cc3)CC2)cc1` [compound 2283, trans-2-(4-(4-(3-(4-trifluoromethoxy-phenyl)-ureido)-cyclohexyloxy)-benzamido)-acetic acid], the inhibition (usually the drop in the measured response relative to a control, in per cent) at 0.1 µM at Canine sEH worked out at 64%.
For the molecule `O=C(Nc1ccc(OC(F)(F)F)cc1)NC1CCC(Oc2ncccn2)CC1` (stereo not shown) [compound 2810, 1-(4-(pyrimidin-2-yloxy)-cyclohexyl)-3-(4-(trifluoromethoxy)-phenyl)-urea], the inhibition at 0.1 µM at Canine sEH was 52%.
Same read-out and setting: the figure for `O=C(Nc1ccc(OC(F)(F)F)cc1)Nc1ccc(Oc2ccc(C(=O)O)cc2)cc1F` [compound 2807, 4-(3-fluoro-4-(3-(4-(trifluoromethoxy)-phenyl)-ureido)-phenoxy)-benzoic acid] is 95%; for `O=C(Nc1ccc(OC(F)F)cc1)N[C@H]1CC[C@H](Oc2ccc(C(=O)O)cc2)CC1` [compound 2805, 4-(trans-4-(3-(4-(difluoromethoxy)-phenyl)-ureido)-cyclohexyloxy)-benzoic acid] it is 95%; for `O=C(Nc1ccccc1F)N[C@H]1CC[C@H](Oc2ccc(C(=O)O)cc2)CC1` [compound 2736, 4-(trans-4-(3-(2-fluorophenyl)-ureido)-cyclohexyloxy)-benzoic acid] it is 80%.
`Cc1oc(=O)oc1COC(=O)c1ccc(O[C@H]2CC[C@H](NC(=O)Nc3ccc(OC(F)(F)F)cc3)CC2)cc1` [compound 2796, (5-methyl-2-oxo-1,3-dioxol-4-yl)methyl 4-((1r,4r)-4-(3-(4-(trifluoromethoxy)-phenyl)-ureido)-cyclohexyloxy)-benzoate] yielded an inhibition at 0.1 µM against Canine sEH of 84%.
With `CCCCCCCCCCCCNC(=O)NC12CC3CC(CC(C3)C1)C2` [ADU, N-Adamantyl-N′-dodecyl urea], the “activity as an inhibitor of sEH” value at sEH is listed as “particularly high activity on sEH”.
`COC(=O)c1ccc(NC2CCC(NC(=O)Nc3ccc(OC(F)(F)F)cc3)CC2)cc1` (stereo not shown) [compound 2804, methyl 4-(4-(3-(4-(trifluoromethoxy)-phenyl)-ureido)-cyclohexylamino)-benzoate] displayed an inhibition at 0.1 µM against Canine sEH of 49%.
As to `CCCCC1C(=O)N(c2ccccc2)N(c2ccccc2)C1=O` [phenylbutazone], the “response of laminitis pain to therapy” value in data set [1] is recorded as “refractory”. On COX-2, the IC80 was approximately 23 µM.
For the molecule `CC(=O)Oc1ccccc1C(=O)O` [Aspirin], in the data set on COX-2 / COX-1, the “COX-2 (IC50)/COX-1 (IC50) ratio” value is 0.32.
Turning to `O=C(Nc1ccc(Oc2ccc(C(=O)O)cc2)cc1)Nc1ccc(OC(F)(F)F)cc1` [compound 2803, 4-(4-(3-(4-(trifluoromethoxy)-phenyl)-ureido)-phenoxy)-benzoic acid], on Canine sEH, the inhibition at 0.1 µM worked out at 82%.
For the molecule `O=C(Nc1ccc(OC(F)(F)F)cc1)N[C@H]1CC[C@H](Oc2ccc(C(=O)NO)cc2)CC1` [compound 2761, N-hydroxy-4-(trans-4-(3-(4-(trifluoromethoxy)-phenyl)-ureido)-cyclohexyloxy)-benzamide], testing at 0.1 µM at Canine sEH gave an inhibition of 72%.
For `NCC1(CC(=O)O)CCCCC1` [gabapentin], the “response of laminitis pain to therapy” value in [1] was “refractory”. Moreover, the “plasma concentration associated with analgesia” value in data set [2] is approximately 18 µM. Further, the “lowest measured plasma concentration” value in [3] was 1 µM. The “highest measured plasma concentration” value in [3] (first sampling five hours after dosing) worked out at 18 µM.
`CS(=O)(=O)NC(=O)c1ccc(O[C@H]2CC[C@H](NC(=O)Nc3ccc(OC(F)(F)F)cc3)CC2)cc1` [compound 2728, N-(methylsulfonyl)-4-(trans-4-(3-(4-trifluoromethoxy-phenyl)-ureido)-cyclohexyloxy)-benzamide] gave an inhibition at 0.1 µM against Canine sEH of 84%.
As for `O=C(Nc1ccc(OC(F)(F)F)cc1)N[C@H]1CC[C@H](Oc2ccc(C(=O)O)cc2)CC1` [compound 1728, trans-4-{4-[3-(4-Trifluoromethoxy-phenyl)-ureido]-cyclohexyloxy}-benzoic acid], in [4], the Anisocytosis entry is recorded as “Slight”, the “Bilirubin Direct” value was 0.1 mg/dL, the Creatinine stood at 1.1 mg/dL and the Echinocytes result is given as “Few”. In [4], this molecule registered a GGT of 11 IU L^−1 and an SDH-37 of 0 IU L^−1. For the same molecule, the half-life (as a rule, the time in which the quantity being followed falls by half) in the data set “in vivo” was 29.8 h.
As to `O=C(Nc1ccc(OC(F)(F)F)cc1)N[C@H]1CC[C@H](Oc2ccc(-c3nnn[nH]3)cc2)CC1` [compound 2806, 1-(trans-4-(4-(1H-tetrazol-5-yl)-phenoxy)-cyclohexyl)-3-(4-(trifluoromethoxy)-phenyl)-urea], the inhibition at 0.1 µM at Canine sEH was 99%.
Turning to `COc1ccc2c(c1)c(CC(=O)O)c(C)n2C(=O)c1ccc(Cl)cc1` [indomethacin], in the data set with COX-2 / COX-1, the “COX-2 (IC50)/COX-1 (IC50) ratio” value is given as 33.
As for `O=C1CCC(NC(=O)Nc2ccc(OC(F)(F)F)cc2)CC1` [compound 2809, 1-(4-oxocyclohexyl)-3-(4-(trifluoromethoxy)-phenyl)-urea], on Canine sEH, the inhibition at 0.1 µM stood at 51%.
